Test results: patent US10781184B2, “Substituted benzazinones as antibacterial compounds” (GlaxoSmithKline Intellectual Property Development Limited, priority 2015, dated 2020)
Values after ≈ are worked out from the molar mass of the structure shown.

Experiments:
Untagged E. coli LpxC = biological target: T1, Untagged E. coli LpxC (Escherichia coli, UniProt P0A725); experiment: E. coli Enzyme Assay (LpxC deacetylase, RapidFire MS); assay type: biochemical; settings: read-out: E. coli plC50 (converted)
T1 construct: Untagged E. Coli LpxC 1-300 was expressed in E. Coli; made in house; host or cells: E. coli
T1 sequence (P0A725 1-300): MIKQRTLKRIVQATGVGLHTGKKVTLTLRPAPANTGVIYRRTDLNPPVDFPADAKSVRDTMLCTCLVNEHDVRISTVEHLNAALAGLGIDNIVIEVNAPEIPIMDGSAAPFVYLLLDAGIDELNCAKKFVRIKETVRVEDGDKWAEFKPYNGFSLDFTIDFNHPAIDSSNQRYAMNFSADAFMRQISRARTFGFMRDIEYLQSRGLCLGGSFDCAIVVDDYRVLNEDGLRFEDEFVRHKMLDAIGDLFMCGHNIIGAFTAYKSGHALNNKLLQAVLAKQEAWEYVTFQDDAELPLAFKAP
Text: Untagged E. Coli LpxC 1-300 was expressed in E. Coli and purified with NiNTA Agarose, Superdex 200 and Mono Q columns. UDP-3-O—(R-3-hydroxymyristoyl)-N-Acetylglucosamine Substrate was obtained through a custom synthesis from Alberta Innovates Technology Futures. Method Untagged E. coli LpxC is a deacetylase, which can remove an acetyl-group from UDP-3-O—(R-3-hydroxymyristoyl)-N-Acetylglucosamine (m/z 832.1-385) to result in a product (m/z 790.3→385) that is 42 Daltons less than the original acetylated substrate. Direct detection of the deacetylated product and acetylated substrate was accomplished through an Agilent RapidFire v. 3.4/Sciex 4000 Q-Trap RF-MS instrument. […] Following a 30 minute preincubation, 20 μL of 2× substrate [2 μM final concentration; 39.984 mL buffer+16 μL of UDP-3-O—(R-3-hydroxymyristoyl)-N-Acetylglucosamine (at 10 mM Stock)] was added and incubated for 25 minutes. The reaction was quenched by the addition of 10 μL of 1N HCl. The plate was loaded onto the Agilent RapidFire v. 3.4/Sciex 4000 Q-Trap RF-MS instrument for analysis [C4 SPE cartridge, 2 mM ammonium acetate in 100 v/v water as the aqueous eluent and 5 mM ammonium acetate in 25% v/v/25% v/v/50% v/v acetonitrile/acetone/water as the organic eluent]. For dose response experiments % conversion were determined from the substrate and product extracted ion chromatogram (XIC) areas and normalized to the assay high and low controls. Normalized data were fit by ActivityBase XE using the equation y=a+(b−a)/(1+(10^x/10^c)^d), where a is the minimum % activity, b is the maximum % activity, c is the pIC50, and d is the Hill slope. ^1Langsdorf, Erik F. et al. Screening for Antibacterial Inhibitors of the UDP-3-O—(R-3-Hydroxymyristoyl)-N-Acetylglucosamine Deacetylase (LpxC) Using a High-Throughput Mass Spectroscopy Assay. See, J. Biomol. Screen. 2010, 15, 52-61. Minimum Inhibitory Concentration Assay

E. coli 7623 = experiment: Minimum Inhibitory Concentration Assay (broth microdilution, CLSI); assay type: cell-based; settings: Escherichia coli; strain 7623, broth microdilution; read-out: E. coli 7623 MIC
Method in brief: (§1)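 CLSI broth microdilution for aerobic bacteria; compounds serially diluted in the recommended broth over a final range of 0.125–128 mcg/mL, final DMSO below 1%. MIC read as the lowest concentration inhibiting visible growth.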

K. pneumoniae 1161486 = experiment: as above; assay type: cell-based; settings: Klebsiella pneumoniae; strain 1161486, broth microdilution; read-out: K. pneumoniae 1161486 MIC
Method in brief: as §1

P. aeruginosa PA01 = experiment: as above; assay type: cell-based; settings: Pseudomonas aeruginosa; strain PA01, broth microdilution; read-out: P. aeruginosa PA01 MIC
Method in brief: as §1

SMILES	IC50 (Untagged E. coli LpxC) [nM]	MIC (E. coli 7623) [µg/mL]	MIC (K. pneumoniae 1161486) [µg/mL]	MIC (P. aeruginosa PA01) [µg/mL]
CN(C)Cc1ccc(-c2ccc3c(=O)n(CC[C@](C)(C(=O)NO)S(C)(=O)=O)ccc3c2)c(F)c1F [Example 69, (2R)-4-(6-{4-[(dimethylamino)methyl]-2,3-difluorophenyl}-1-oxo-1,2-dihydroisoquinolin-2-yl)-N-hydroxy-2-methanesulfonyl-2-methylbutanamide]	1	0.125 (≈ 0.246 µM)	1 (≈ 1.97 µM)	1 (≈ 1.97 µM)
COc1ccc(-c2ccc3c(=O)n(CC[C@](C)(C(=O)NO)S(C)(=O)=O)cnc3c2)cc1 [Example 3, (R)—N-hydroxy-4-(7-(4-methoxyphenyl)-4-oxoquinazolin-3(4H)-yl)-2-methyl-2-(methylsulfonyl)butanamide]	1	0.06 (≈ 0.135 µM)	0.5 (≈ 1.12 µM)	2 (≈ 4.49 µM)
COC(C)(C)CNCc1ccc(-c2ccc3c(=O)n(CC[C@](C)(C(=O)NO)S(C)(=O)=O)ccc3c2)c(F)c1 [Example 68, (2R)-4-[6-(2-fluoro-4-{[(2-methoxy-2-methylpropyl)amino]methyl}phenyl)-1-oxo-1,2-dihydroisoquinolin-2-yl]-N-hydroxy-2-methanesulfonyl-2-methylbutanamide]	1	0.125 (≈ 0.228 µM)	0.5 (≈ 0.913 µM)	2 (≈ 3.65 µM)
CCOCCNCc1ccc(-c2ccc3c(=O)n(CC[C@](C)(C(=O)NO)S(C)(=O)=O)ccc3c2)c(F)c1 [Example 72, (2R)-4-[6-(4-{[(2-ethoxyethyl)amino]methyl}-2-fluorophenyl)-1-oxo-1,2-dihydroisoquinolin-2-yl]-N-hydroxy-2-methanesulfonyl-2-methylbutanamide]	1	0.125 (≈ 0.234 µM)	0.25 (≈ 0.468 µM)	1 (≈ 1.87 µM)
C[C@@](CCn1ccc2cc(-c3ccc(CN4CCOCC4)cc3)ccc2c1=O)(C(=O)NO)S(C)(=O)=O [Example 64, (2R)—N-hydroxy-2-methanesulfonyl-2-methyl-4-(6-{4-[(morpholin-4-yl)methyl]phenyl}-1-oxo-1,2-dihydroisoquinolin-2-yl)butanamide]	1	< 0.03	0.25 (≈ 0.487 µM)	0.5 (≈ 0.973 µM)
C[C@@](CCn1cnc2cc(-c3ccc(CCN4CCOCC4)cc3)ccc2c1=O)(C(=O)NO)S(C)(=O)=O [Example 42, (2R)—N-hydroxy-2-methanesulfonyl-2-methyl-4-(7-{4-[2-(morpholin-4-yl)ethyl]phenyl}-4-oxo-3,4-dihydroquinazolin-3-yl)butanamide]	1	0.25 (≈ 0.473 µM)	0.5 (≈ 0.946 µM)	2 (≈ 3.78 µM)
